From publication PMC10578023 (Cell Communication and Signaling : CCS, 2023) come the findings set out here.

One may read the IC50 as the concentration needed to halve the response being measured.

Data set [1] concerns IL-12/IL-18-driven IFNγ production. Description: IL-12/IL-18-induced IFNγ release in mice. Type of data set: in vivo. Here is the method:
Healthy female, specific pathogen-free C57BL/6 mice (6–8 weeks) were intraperitoneally (i.p.) injected with IL-12 and IL-18 to drive IFNγ production. Mice were numbered, weighed and divided randomly into seven groups of five according to body weight using Excel™ (Office™; Microsoft, Redmond, WA, USA). One hour after drug administration, IL-12 (0.01 μg/mouse) was i.p. injected. One hour later, recombinant IL-18 (0.1 μg/mouse) was injected. Whole blood was collected 3 h later and centrifuged (300 g, 10 min, 4 °C), and serum was collected. IFNγ expression in serum was determined by a CBA Flex kit (BD Biosciences).

The test system of data set [2] is TYK2/JAK1. Description: IFNα-induced pSTAT1 in CD19+ B cells of human PBMCs. Type of data set: cell-based. Here is the method:
The reaction was terminated by collecting cells for surface staining. Cells were stained with anti-CD3 FITC (300406; Biolegend, San Diego, CA, USA), anti-CD19 APC (555415; BD Biosciences) or aqua fluorescent reactive dye BV421 (L34966A; Invitrogen, Carlsbad, CA, USA) antibodies for 20 min. After washing, fixation buffer (557870; BD Biosciences) was added and incubated for 10 min. Cells were washed and permeabilized on ice using Perm III Buffer (558050; BD Biosciences). Cells were stained with PE anti-PSTAT1 antibody (562069; BD Biosciences) for 30 min and analyzed by flow cytometry.

Another data set can be described thus: Plasma protein binding. Type of data set: in vitro ADME. Here is the method:
(§1) The ADME properties of QL-1200186 in vitro were measured by the following assays: Caco-2 permeability assay, CYP inhibition assay, protein binding assay, and liver microsome assay. Each assay was performed as previously described.

In data set [3] the test system is TYK2/JAK1. Description: IFNα-stimulated pSTAT5 in human PBMC (CD3+), FACS. Type of data set: cell-based. On the procedure: With regard to IFNα-stimulated phosphorylation of STAT5 in human peripheral blood mononuclear cells (PBMCs), after incubation with QL-1200186 for 1 h, human PBMCs were stimulated with recombinant human IFNα (1000 U/mL; 11200–2; PBL Assay Science) for 30 min.
The stimulations stated above were terminated with prewarmed Lyse/Fix Buffer (558,049; BD Biosciences, San Jose, CA, USA) for 10 min. Cells were stained with an anti-cluster of differentiation (CD)3 fluorescein isothiocyanate (FITC) antibody (required for PBMCs but not for the other cell types), washed, and permeabilized on ice using Perm III Buffer (558,050; BD Biosciences) prior to staining with an Alexa Fluor 647 anti-phosphorylated (p)STAT5 (pY694) antibody for 30 min and analyzed by flow cytometry. Phosphorylation of STAT5 was quantified by the median fluorescence intensity (MFI) after gating on the CD3-positive population.

The next data set can be described thus: Met ID in vitro. Type of data set: in vitro ADME, human.
A further data set has as its target JAK2 (JH1) (Homo sapiens, UniProt O60674). Description: JH1 kinase assay, HTRF KinEASE-TK. The format is biochemical. On the procedure: (§2) We measured the ability of a compound to bind to JAK1/2/3 and the TYK2 JH1 domain by using HTRF® KinEASE™-TK kits (Millipore, Bedford, MA, USA). JAK1/2/3 and the TYK2 JH1 domain in assay buffer were added to various concentrations of QL-1200186 and incubated for 15 min at RT. Then, the plate was incubated with the biotin-labeled TK substrate and adenosine triphosphate for 45 min at RT. Next, SA-XL665 and TK antibody-Eu3 were added to the detection buffer and incubated for 1 h at RT. The HTRF signal was measured on a plate reader (Envision).

For another data set, the target named is T1, TYK2 JH1 domain (Homo sapiens, UniProt P29597).
T1 construct: JAK1/2/3 and the TYK2 JH1 domain in assay buffer were added
The data set can be described thus: JH1 kinase assay, HTRF KinEASE-TK. Type of data set: biochemical. Here is the method: as §2

The target in another data set is JAK3 (JH1) (Homo sapiens, UniProt P52333). The data set can be described thus: JH1 kinase assay, HTRF KinEASE-TK. Type of data set: biochemical. Here is the method:
as §2
For orientation: Time-resolved FRET reads energy transfer from a long-lived donor to a nearby acceptor.

For another data set, the system named is JAK2/JAK2. Description: TPO-stimulated pSTAT3/STAT5 in platelets of human whole blood. The format is cell-based. Here is the method: Stimulation was terminated by adding Lyse/Fix buffer. Staining with BUV786 mouse anti-human CD61 antibody (744384; BD Biosciences) was carried out, followed by washing, permeabilization and staining with PE mouse anti-human STAT3 antibody (651004; BD Biosciences) and APC mouse anti-human STAT5 antibody (562076; BD Biosciences), as described above. The expression of p-STAT3 and STAT5 was quantified by the MFI after the number of CD61-positive platelets was optimized.

The target in the next data set is T2, TYK2 (Homo sapiens, UniProt P29597).
T2 construct: host or cells: Jurkat cells
The data set can be described thus: IFNα-stimulated TYK2 phosphorylation in Jurkat cells, western blot. To be noted: IFNα 1000 U/mL. The format is cell-based. The text has this: Then, the phosphorylation of Tyr-1054 and Tyr-1055 in Jurkat cells (Cobioer Biosciences: CBP61444) was detected by western blotting to determine the inhibitory effect of QL-1200186 on TYK2 receptor-mediated activation.
Background: A western blot detects proteins with antibodies after separation by electrophoresis.

The conditions of data set [4]: rats, data not shown.
The next data set addresses CYP450 1A2 (Homo sapiens, UniProt P05177). Type of data set: in vitro ADME. On the procedure: as §1

Where only a bound is given, the exact number is not on record here.

T1 sequence (P29597 897-1176 limits assumed): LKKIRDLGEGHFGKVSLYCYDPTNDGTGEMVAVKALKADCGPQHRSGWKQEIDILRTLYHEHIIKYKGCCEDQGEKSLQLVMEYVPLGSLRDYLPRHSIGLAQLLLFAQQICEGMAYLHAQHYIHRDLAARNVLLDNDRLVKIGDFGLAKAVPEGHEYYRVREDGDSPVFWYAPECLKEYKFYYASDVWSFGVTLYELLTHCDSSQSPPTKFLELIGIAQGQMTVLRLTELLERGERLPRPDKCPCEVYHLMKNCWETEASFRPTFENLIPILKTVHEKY
JAK3 (JH1), sequence (P52333 822-1111 limits assumed): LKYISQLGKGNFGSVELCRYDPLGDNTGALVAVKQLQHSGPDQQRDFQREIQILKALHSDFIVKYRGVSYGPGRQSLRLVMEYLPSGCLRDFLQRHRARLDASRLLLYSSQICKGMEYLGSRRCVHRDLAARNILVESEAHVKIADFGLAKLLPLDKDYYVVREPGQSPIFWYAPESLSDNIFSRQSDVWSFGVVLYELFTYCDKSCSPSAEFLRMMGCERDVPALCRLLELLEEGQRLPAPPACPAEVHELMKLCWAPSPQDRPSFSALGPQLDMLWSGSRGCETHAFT
JAK2 (JH1), sequence (O60674 849-1124 limits assumed): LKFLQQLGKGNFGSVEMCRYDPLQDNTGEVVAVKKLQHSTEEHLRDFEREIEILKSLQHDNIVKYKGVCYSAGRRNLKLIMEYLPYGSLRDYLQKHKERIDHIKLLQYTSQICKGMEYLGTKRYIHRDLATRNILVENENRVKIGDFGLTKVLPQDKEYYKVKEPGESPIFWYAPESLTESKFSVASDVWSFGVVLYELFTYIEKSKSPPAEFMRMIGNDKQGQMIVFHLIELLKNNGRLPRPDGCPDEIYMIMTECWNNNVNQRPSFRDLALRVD
CYP450 1A2, sequence (P05177 whole entry): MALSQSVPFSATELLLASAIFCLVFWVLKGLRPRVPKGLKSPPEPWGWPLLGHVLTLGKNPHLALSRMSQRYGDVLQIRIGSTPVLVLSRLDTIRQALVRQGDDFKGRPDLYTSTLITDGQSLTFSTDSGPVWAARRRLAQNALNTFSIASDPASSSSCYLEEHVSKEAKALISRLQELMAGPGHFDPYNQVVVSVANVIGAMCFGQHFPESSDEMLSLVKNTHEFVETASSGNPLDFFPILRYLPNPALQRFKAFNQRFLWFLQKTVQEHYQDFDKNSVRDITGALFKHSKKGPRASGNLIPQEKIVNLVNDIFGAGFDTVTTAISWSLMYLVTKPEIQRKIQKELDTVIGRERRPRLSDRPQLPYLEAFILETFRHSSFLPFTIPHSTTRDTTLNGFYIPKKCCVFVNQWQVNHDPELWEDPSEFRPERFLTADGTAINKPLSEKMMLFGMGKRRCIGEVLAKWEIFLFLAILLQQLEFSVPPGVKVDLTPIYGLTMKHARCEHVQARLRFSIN
T2 sequence (P29597 whole entry): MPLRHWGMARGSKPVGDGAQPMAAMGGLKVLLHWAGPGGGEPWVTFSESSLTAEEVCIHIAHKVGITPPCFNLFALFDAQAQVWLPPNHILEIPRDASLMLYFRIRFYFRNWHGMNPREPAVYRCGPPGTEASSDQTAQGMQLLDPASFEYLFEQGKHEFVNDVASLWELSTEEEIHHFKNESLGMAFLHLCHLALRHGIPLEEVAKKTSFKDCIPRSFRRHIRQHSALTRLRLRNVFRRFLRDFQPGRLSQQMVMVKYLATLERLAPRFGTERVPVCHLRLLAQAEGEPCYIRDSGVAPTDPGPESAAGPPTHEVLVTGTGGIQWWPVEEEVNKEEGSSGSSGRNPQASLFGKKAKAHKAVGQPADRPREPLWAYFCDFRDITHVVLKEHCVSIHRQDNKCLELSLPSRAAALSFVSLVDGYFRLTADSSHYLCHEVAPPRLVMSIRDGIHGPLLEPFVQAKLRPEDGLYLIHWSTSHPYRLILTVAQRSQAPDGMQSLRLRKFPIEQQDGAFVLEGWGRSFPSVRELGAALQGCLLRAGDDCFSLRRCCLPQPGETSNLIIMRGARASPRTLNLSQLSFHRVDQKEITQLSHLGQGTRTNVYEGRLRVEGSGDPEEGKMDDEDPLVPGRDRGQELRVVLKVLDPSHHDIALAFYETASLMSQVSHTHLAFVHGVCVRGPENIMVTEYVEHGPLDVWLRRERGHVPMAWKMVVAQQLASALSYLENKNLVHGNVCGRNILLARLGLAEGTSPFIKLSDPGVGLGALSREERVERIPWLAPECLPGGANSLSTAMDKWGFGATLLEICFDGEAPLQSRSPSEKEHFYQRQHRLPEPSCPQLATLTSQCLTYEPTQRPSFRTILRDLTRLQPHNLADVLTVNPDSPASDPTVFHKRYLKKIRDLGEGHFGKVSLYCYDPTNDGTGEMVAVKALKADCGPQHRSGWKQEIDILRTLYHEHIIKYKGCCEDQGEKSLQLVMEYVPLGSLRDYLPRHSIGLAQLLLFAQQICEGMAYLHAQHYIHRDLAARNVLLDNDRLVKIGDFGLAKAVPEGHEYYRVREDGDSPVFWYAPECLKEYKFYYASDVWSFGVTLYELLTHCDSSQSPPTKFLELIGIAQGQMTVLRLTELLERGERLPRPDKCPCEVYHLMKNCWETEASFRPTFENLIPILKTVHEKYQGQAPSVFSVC

As to `CNC(=O)c1cnc2cc1Nc1cc(cc(-c3ccn(C)n3)c1OC)CCOCc1cccc(n1)N2` [QL-1200186, 5^6-methoxy-N-methyl-5^5-(1-methyl-1H-pyrazol-3-yl)-8-oxa-2,4-diaza-1(2,6),3(2,4)-dipyridina-5(1,3)-benzenacyclononaphane-3^5-carboxamide], the “inhibition of serum IFNγ production” value in data set [1] (oral 10 mg/kg) is given as 97.8%; in data set [1] (oral, 0.1 mg/kg), 77.1%; in data set [1] (oral, 1 mg/kg), 86.9%. Also, the IC50 in the data set with TYK2/JAK1 [2] was 0.00143 µM; in the data set with TYK2/JAK1 [3], 0.00726 µM; at JAK2 (JH1), above 9.9 µM; at TYK2 JH1 domain it was above 9.9 µM; against JAK3 (JH1), above 9.9 µM; against CYP450 1A2, above 50 µM. Further, the “PPB (%, free)” value in “Plasma protein binding” (Dog) was found to be 3.7%; in “Plasma protein binding” (Human) it was 0.844%; in “Plasma protein binding” (Monkey), 2.8%; in “Plasma protein binding” (Mouse) it was 0.201%; in the data set “Plasma protein binding” (Rat) it was 1.3%. Besides, the “specific human metabolites in vitro (Met ID)” value in the data set “Met ID in vitro” is “no specific human metabolites in vitro”. Also, the “Kinase assay (JH1) JAK2 IC50” value at JAK2 (JH1) was “did not show inhibitory activity”. Besides, the “Kinase assay (JH1) TYK2 IC50” value on TYK2 JH1 domain is listed as “did not show inhibitory activity”. In addition, the “Kinase assay (JH1) JAK3 IC50” value on JAK3 (JH1) is recorded as “did not show inhibitory activity”. For the same compound, in the data set on JAK2/JAK2 (@10μM), the “TPO-pSTAT3/STAT5 in human whole blood (JAK2/JAK2) inhibition” value is on record as “no inhibition @10μM”. Besides, in the data set on JAK2/JAK2 (human whole blood), the “activity in thrombopoietin (TPO)-induced JAK2/JAK2 signaling” value is “no activity”. Moreover, the “IFNα-stimulated phosphorylation of TYK2 in Jurkat cells” value on TYK2 was “blocked IFNα-stimulated phosphorylation of TYK2 in Jurkat cells in a concentration-dependent manner”. In data set [4], the “safety in toxicological studies” value is given as “excellent safety”.
